The values below come from PubChem BioAssay AID330 (DTP/NCI, 2004).

Where “and” joins values, the source holds several entries; their conditions need not be identical. Identical values can stand only once. Inconclusive results and toxic doses are left out.

The test system of the assay is P388 leukemia ip, CD2F1 mice, survival T/C. Kind of assay: NCI In Vivo Anticancer Drug Screen. Data for tumor model P388 Leukemia (intraperitoneal) in CD2F1 (CDF1) mice. To be noted: endpoint: median survival time, higher = longer survival. In short, it runs like this:
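Mice carrying the transplanted tumor received test compound or vehicle. Survival was recorded in each group, and the value is the treated-group measurement divided by that of the vehicle-treated control group.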

Where [1] appears, read: dose: 50.0 mg/kg/injection, schedule: Q01DX009 (ip), vehicle: Klucel (hydroxypropylcellulose) (HPC).

With `C/C=C/c1cc2n(c1)C(=O)c1cc(OC3OC(C)C(NC)C(C)(O)C3O)c(C)c(O)c1NC2O` (stereo not drawn), the T/C is 94 % of control (dose: 0.02 mg/kg/injection, schedule: Q04DX003 (ip), vehicle: saline); 89 % of control (dose: 0.04 mg/kg/injection, schedule: Q04DX003 (ip), vehicle: saline); 110 % of control (dose: 0.3 micrograms/kg/injection, schedule: Q03DX003 (ip), vehicle: DMSO); 120 % of control (dose: 1.0 micrograms/kg/injection, schedule: Q01DX001 (ip), vehicle: DMSO); 100 % of control (dose: 1.0 micrograms/kg/injection, schedule: Q01DX009 (ip), vehicle: saline); 117 % of control (dose: 4.0 micrograms/kg/injection, schedule: Q01DX009 (ip), vehicle: saline). In addition, the T/C reads like this: (dose: 4.0 micrograms/kg/injection, schedule: Q04DX003 (ip), vehicle: DMSO) 120 % of control; (dose: 16.0 micrograms/kg/injection, schedule: Q01DX001 (ip), vehicle: DMSO) 173 % of control; (dose: 16.0 micrograms/kg/injection, schedule: Q03DX003 (ip), vehicle: DMSO) 180 % of control; (dose: 16.0 micrograms/kg/injection, schedule: Q04DX003 (ip), vehicle: DMSO) 123 % of control; (dose: 32.0 micrograms/kg/injection, schedule: Q01DX001 (ip), vehicle: DMSO) 95 % of control.

For `O=C(OC(CCc1ccccc1)C(=O)O)c1ccc([N+](=O)[O-])cc1` (stereo not drawn), the T/C is, setting by setting: (dose: 75.0 mg/kg/injection, schedule: Q01DX001 (ip), vehicle: Klucel (hydroxypropylcellulose) (HPC)) 111 % of control; (dose: 150.0 mg/kg/injection, schedule: Q01DX001 (ip), vehicle: Klucel (hydroxypropylcellulose) (HPC)) 112 % of control; (dose: 300.0 mg/kg/injection, schedule: Q01DX001 (ip), vehicle: Klucel (hydroxypropylcellulose) (HPC)) 97 % of control.

`O=C(CC(=O)CC(O)(C(F)(F)F)C(F)(F)F)CC(O)(C(F)(F)F)C(F)(F)F`: the T/C is, setting by setting: (dose: 1.25 mg/kg/injection, schedule: Q04DX003 (ip), vehicle: saline) 100 % of control; (dose: 2.5 mg/kg/injection, schedule: Q04DX003 (ip), vehicle: saline) 95 % of control.

`N/C=N/OC(c1ccccc1)c1ccccc1`: the T/C is, setting by setting: (dose: 50.0 mg/kg/injection, schedule: Q01DX005 (ip), vehicle: Klucel + Tween-80) 99 % of control; (dose: 100.0 mg/kg/injection, schedule: Q01DX005 (ip), vehicle: Klucel + Tween-80) 102 % of control; (dose: 200.0 mg/kg/injection, schedule: Q01DX005 (ip), vehicle: Klucel + Tween-80) 98 % of control.

`CCn1c(=O)c2n[nH]nc2n(C2CC2)c1=O`: the T/C is 92 % of control (dose: 50.0 mg/kg/injection, schedule: Q01DX009 (ip), vehicle: saline); 96 % of control (dose: 100.0 mg/kg/injection, schedule: Q01DX009 (ip), vehicle: saline); 105 % of control (dose: 200.0 mg/kg/injection, schedule: Q01DX009 (ip), vehicle: saline).

On to `CS(=O)(=O)c1ccc(/C(=N/N)c2ccccc2)cc1`, for which the T/C is 103 % of control (dose: 12.5 mg/kg/injection, schedule: Q01DX009 (ip), vehicle: Klucel (hydroxypropylcellulose) (HPC)); 102 % of control (dose: 25.0 mg/kg/injection, schedule: Q01DX009 (ip), vehicle: Klucel (hydroxypropylcellulose) (HPC)); 101 % of control and 93 % of control under setting [1].

Turning to `NC(C/[N+]([O-])=N/O)C(=O)O` (stereo not drawn), the T/C by setting is: (dose: 8.78 mg/kg/injection, schedule: Q01DX010 (ip), vehicle: alkali diluted with saline) 119 % of control; (dose: 9.38 mg/kg/injection, schedule: Q01DX009 (ip), vehicle: alkali diluted with saline) 120 % of control; (dose: 13.2 mg/kg/injection, schedule: Q01DX010 (ip), vehicle: alkali diluted with saline) 124 % of control; (dose: 15.6 mg/kg/injection, schedule: Q01DX005 (ip), vehicle: saline with Tween-80) 124 % of control; (dose: 15.6 mg/kg/injection, schedule: Q01DX005 (iv), vehicle: saline with Tween-80) 107 % of control; (dose: 27.0 mg/kg/injection, schedule: Q01DX009 (ip), vehicle: alkali diluted with saline) 161 % of control. The T/C is, setting by setting: (dose: 30.0 mg/kg/injection, schedule: Q01DX005 (ip), vehicle: alkali diluted with saline) 161 % of control; (dose: 31.3 mg/kg/injection, schedule: Q01DX005 (iv), vehicle: saline with Tween-80) 103 % of control; (dose: 37.5 mg/kg/injection, schedule: Q01DX009 (ip), vehicle: alkali diluted with saline) 161 % of control and 162 % of control; (dose: 40.0 mg/kg/injection, schedule: Q01DX005 (ip), vehicle: alkali diluted with saline) 150 % of control; (dose: 40.0 mg/kg/injection, schedule: Q01DX009 (ip), vehicle: alkali diluted with saline) 165 % of control; (dose: 45.0 mg/kg/injection, schedule: Q01DX009 (ip), vehicle: alkali diluted with saline) 152 % of control and 166 % of control. For the same molecule, the T/C (dose: 60.0 mg/kg/injection, schedule: Q01DX005 (ip), vehicle: alkali diluted with saline) was 185 % of control; the T/C (dose: 62.5 mg/kg/injection, schedule: Q01DX005 (iv), vehicle: saline with Tween-80) is 111 % of control; the T/C (dose: 62.5 mg/kg/injection, schedule: Q01DX009 (ip), vehicle: saline) is 150 % of control; the T/C (dose: 62.5 mg/kg/injection, schedule: Q01DX009 (ip), vehicle: water) is 163 % of control; the T/C (dose: 66.7 mg/kg/injection, schedule: Q01DX009 (ip), vehicle: alkali diluted with saline) was 107 % of control; the T/C (dose: 75.0 mg/kg/injection, schedule: Q01DX009 (ip), vehicle: alkali diluted with water) was 166 % of control. Moreover, the T/C by setting is: (dose: 80.0 mg/kg/injection, schedule: Q01DX005 (ip), vehicle: alkali diluted with saline) 182 % of control; (dose: 80.0 mg/kg/injection, schedule: Q01DX009 (ip), vehicle: alkali diluted with saline) 99 % of control; (dose: 100.0 mg/kg/injection, schedule: Q01DX010 (ip), vehicle: alkali diluted with saline) 92 % of control; (dose: 108.0 mg/kg/injection, schedule: Q04DX003 (ip), vehicle: alkali diluted with saline) 161 % of control; (dose: 112.5 mg/kg/injection, schedule: Q04DX003 (ip), vehicle: alkali diluted with saline) 150 % of control; (dose: 120.0 mg/kg/injection, schedule: Q01DX005 (ip), vehicle: alkali diluted with saline) 70 % of control. Further, the T/C (dose: 125.0 mg/kg/injection, schedule: Q01DX005 (ip), vehicle: saline with Tween-80) was 157 % of control; the T/C (dose: 125.0 mg/kg/injection, schedule: Q01DX005 (iv), vehicle: saline with Tween-80) is 107 % of control; the T/C (dose: 125.0 mg/kg/injection, schedule: Q01DX009 (ip), vehicle: alkali diluted with saline) was 66 % of control and 86 % of control; the T/C (dose: 125.0 mg/kg/injection, schedule: Q01DX009 (ip), vehicle: saline) is 154 % of control; the T/C (dose: 150.0 mg/kg/injection, schedule: Q01DX009 (ip), vehicle: alkali diluted with water) is 96 % of control; the T/C (dose: 180.0 mg/kg/injection, schedule: Q04DX003 (ip), vehicle: alkali diluted with saline) is 166 % of control. Moreover, the T/C was 155 % of control (dose: 200.0 mg/kg/injection, schedule: Q04DX003 (ip), vehicle: alkali diluted with water); 178 % of control (dose: 225.0 mg/kg/injection, schedule: Q04DX003 (ip), vehicle: alkali diluted with saline); 175 % of control (dose: 300.0 mg/kg/injection, schedule: Q04DX003 (ip), vehicle: alkali diluted with saline); 115 % of control (dose: 450.0 mg/kg/injection, schedule: Q04DX003 (ip), vehicle: alkali diluted with saline); 198 % of control (dose: 500.0 mg/kg/injection, schedule: Q04DX003 (ip), vehicle: alkali diluted with saline).

Regarding `CNc1cccc(NC)c1`, the T/C reads like this: (dose: 12.5 mg/kg/injection, schedule: Q01DX009 (ip), vehicle: water) 105 % of control; (dose: 25.0 mg/kg/injection, schedule: Q01DX009 (ip), vehicle: water) 112 % of control.

For `NC(=O)c1nccnc1Cl`, the T/C under setting [1] was 101 % of control; the T/C (dose: 100.0 mg/kg/injection, schedule: Q01DX009 (ip), vehicle: Klucel (hydroxypropylcellulose) (HPC)) is 100 % of control; the T/C (dose: 200.0 mg/kg/injection, schedule: Q01DX009 (ip), vehicle: Klucel (hydroxypropylcellulose) (HPC)) was 114 % of control.

As for `S=C1SCN(Cc2ccccc2)CN1Cc1ccccc1`, the T/C runs as follows: (dose: 50.0 mg/kg/injection, schedule: Q01DX009 (ip), vehicle: saline with Tween-80) 100 % of control; (dose: 100.0 mg/kg/injection, schedule: Q01DX009 (ip), vehicle: saline with Tween-80) 93 % of control; (dose: 200.0 mg/kg/injection, schedule: Q01DX009 (ip), vehicle: saline with Tween-80) 89 % of control.
